# Source: ChEMBL document CHEMBL5244281, “Tackling multidrug-resistant Staphylococcus aureus by natural products and their analogues acting as NorA efflux pump inhibitors” (Bioorg Med Chem, 2023)
# Key:
# [1] = tested on: Mycolicibacterium smegmatis; assay: Antibacterial activity against Mycobacterium smegmatis ATCC 607 assessed as bacterial growth inhibition incubated for 3 days by CLSI protocol based microbroth dilution method; type: functional; conditions: ATCC 607, 72 h, time 3 day
# Staphylococcus aureus [2] = assay: Antibacterial activity against Staphylococcus aureus NCTC 8325-4 assessed as bacterial growth inhibition incubated for 18 hrs by broth microdilution method; type: functional
# Staphylococcus aureus [3] = assay: Antibacterial activity against methicillin-resistant Staphylococcus aureus clinical isolate assessed as bacterial growth inhibition by broth dilution method; type: functional
# [4] = biological target: T1, Quinolone resistance protein NorA (Staphylococcus aureus) (UniProt P0A0J7); assay: Inhibition of NorA efflux pump in methicillin-resistant Staphylococcus aureus clinical isolate assessed as EtBr MIC using EtBr as substrate at 64 ug/ml and measured for 20 mins by spectrofluorimetric analysis (Rvb=[…] ug/ml); conditions: dose 64.0 µg/ml
# T1 sequence (whole entry): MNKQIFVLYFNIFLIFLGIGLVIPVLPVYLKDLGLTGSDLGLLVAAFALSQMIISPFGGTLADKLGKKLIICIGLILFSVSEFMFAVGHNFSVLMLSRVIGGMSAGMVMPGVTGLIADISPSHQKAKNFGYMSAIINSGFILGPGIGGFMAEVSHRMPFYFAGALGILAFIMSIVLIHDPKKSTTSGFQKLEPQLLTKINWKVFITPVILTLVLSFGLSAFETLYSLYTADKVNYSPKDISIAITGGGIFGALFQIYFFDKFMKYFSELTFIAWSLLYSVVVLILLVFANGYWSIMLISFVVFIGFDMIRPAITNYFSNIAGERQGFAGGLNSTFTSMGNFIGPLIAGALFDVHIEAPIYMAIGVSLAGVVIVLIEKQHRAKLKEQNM
# Staphylococcus aureus [5] = assay: Synergistic antibacterial activity against methicillin-resistant Staphylococcus aureus clinical isolate assessed as fractional inhibitory concentration index in presence of ciprofloxacin by checkerboard assay; type: functional
# [6] = biological target: T1, Quinolone resistance protein NorA (Staphylococcus aureus); assay: Inhibition of NorA efflux pump in methicillin-resistant Staphylococcus aureus clinical isolate assessed as decrease in ciprofloxacin MIC and measured for 20 mins in presence of ciprofloxacin by spectrofluorimetric analysis (Rvb=128 ug/ml)
# [7] = biological target: T1, Quinolone resistance protein NorA (Staphylococcus aureus); assay: Inhibition of NorA efflux pump in Staphylococcus aureus 1199B overexpressing NorA efflux pump assessed as decrease in ciprofloxacin MIC and […] (Rvb=8 ug/ml)
# Staphylococcus aureus [8] = assay: Antibacterial activity against Staphylococcus aureus IS-58 harboring TetK efflux pump protein assessed as bacterial growth inhibition incubated for 24 hrs by broth microdilution method; type: functional
# Staphylococcus aureus [9] = assay: Antibacterial activity against norfloxacin resistant Staphylococcus aureus 1199B harboring NorA efflux pump assessed as bacterial growth inhibition incubated for 24 hrs by broth microdilution method; type: functional
# Staphylococcus aureus [10] = assay: Potentiation of tetracycline-induced inhibition of TetK efflux pump in Staphylococcus aureus IS-58 overexpressing TetK efflux pump assessed as reduction in tetracycline MIC at 1/8 times of MIC incubated for 24 hrs by resazurin based assay (Rvb=192 ug/ml)
# [11] = biological target: T1, Quinolone resistance protein NorA (Staphylococcus aureus); conditions: 1199B
# Staphylococcus aureus [12] = assay: Antibacterial activity against methicillin resistant Staphylococcus aureus clinical isolates assessed as bacterial growth inhibition; type: functional
# Staphylococcus aureus [13] = assay: Synergistic antibacterial activity against methicillin resistant Staphylococcus aureus clinical isolates assessed as fractional inhibitory concentration index in presence of norfloxacin; type: functional
# Staphylococcus aureus [14] = assay: Synergistic antibacterial activity against methicillin resistant Staphylococcus aureus clinical isolates assessed as fractional inhibitory concentration index in presence of ciprofloxacin; type: functional
# Staphylococcus aureus [15] = assay: Synergistic antibacterial activity against methicillin resistant Staphylococcus aureus clinical isolates assessed as fractional inhibitory concentration index in presence of ofloxacin; type: functional
# [16] = biological target: T1, Quinolone resistance protein NorA (Staphylococcus aureus); assay: Potentiation of ciprofloxacin-induced inhibition of NorA efflux pump in Staphylococcus aureus 1199B overexpressing NorA efflux pump assessed as ciprofloxacin MIC at 100 ug/ml for 18 to 20 hrs by checkerboard method (Rvb=4 ug/ml); conditions: dose 100.0 µg/ml, time 18-20 hrs
# [17] = biological target: T1, Quinolone resistance protein NorA (Staphylococcus aureus); assay: Potentiation of ciprofloxacin-induced inhibition of NorA efflux pump in Staphylococcus aureus 1199 assessed as ciprofloxacin MIC at 100 ug/ml for 18 to 20 hrs by checkerboard method (Rvb=0.25 ug/ml); conditions: dose 100.0 µg/ml, time 18-20 hrs
# [18] = biological target: T1, Quinolone resistance protein NorA (Staphylococcus aureus); assay: Inhibition of NorA efflux pump in Staphylococcus aureus 1199B overexpressing NorA efflux pump assessed as minimum effective concentration for 18 to 20 hrs; conditions: time 18-20 hrs
# Staphylococcus aureus [19] = assay: Antibacterial activity against methicillin-resistant Staphylococcus aureus 1199B overexpressing NorA efflux pump assessed as bacterial growth inhibition incubated for 18 hrs by broth microdilution method; type: functional
# Staphylococcus aureus [20] = assay: Antibacterial activity against methicillin-resistant Staphylococcus aureus RN4220/pUL5054 overexpressing MsrA efflux pump assessed as bacterial growth inhibition incubated for 18 hrs by broth microdilution method; type: functional
# Staphylococcus aureus [21] = assay: Antibacterial activity against gentamicin-resistant Staphylococcus aureus APH2" AAC6 assessed as bacterial growth inhibition incubated for 18 hrs by broth microdilution method; type: functional
# Staphylococcus aureus [22] = assay: Antibacterial activity against kanamycin-resistant Staphylococcus aureus APH3' assessed as bacterial growth inhibition incubated for 18 hrs by broth microdilution method; type: functional
# Staphylococcus aureus [23] = assay: Antibacterial activity against fusidic acid-resistant Staphylococcus aureus APH4' assessed as bacterial growth inhibition incubated for 18 hrs by broth microdilution method; type: functional
# Staphylococcus aureus [24] = assay: Antibacterial activity against Staphylococcus aureus ST239 assessed as bacterial growth inhibition incubated for 18 hrs by broth microdilution method; type: functional
# Escherichia coli = assay: Antibacterial activity against Escherichia coli 06 assessed as bacterial growth inhibition incubated for 24 hrs by broth microdilution method; type: functional
# Pseudomonas aeruginosa = assay: Antibacterial activity against Pseudomonas aeruginosa 24 assessed as bacterial growth inhibition incubated for 24 hrs by broth microdilution method; type: functional
# Staphylococcus aureus [25] = assay: Antibacterial activity against Staphylococcus aureus 10 assessed as bacterial growth inhibition incubated for 24 hrs by broth microdilution method; type: functional
compound,measurement,setting,value
COc1c(O)c(OC)c2oc(-c3ccc(O)cc3)c(OC)c(=O)c2c1O,MIC,[1],75 µg/mL
same,MIC,Staphylococcus aureus [2],> 800 µg/mL
COC(=O)/C=C/c1ccc(OCC(=O)Nc2ccc(C)cc2)c(OC)c1,MIC,Staphylococcus aureus [3],> 125 µg/mL
same,MIC,[4],4 µg/mL
same,fractional inhibitory concentration index (FICI),Staphylococcus aureus [5],0.75
same,MIC,[6],64 µg/mL
same,MIC,[7],2 µg/mL
CC1=CC[C@@H]([C@@](C)(O)CCCC(C)C)CC1,MIC,Staphylococcus aureus [8],≥ 1020 µg/mL
same,MIC,Staphylococcus aureus [9],≥ 1020 µg/mL
same,MIC,Staphylococcus aureus [10],128 µg/mL
same,MIC,[11],32 µg/mL
CC1=CCC[C@@]2(C)[C@@]1(C)CC[C@@H](C)[C@]2(C)CCC1=CC(=O)O[C@@H]1O,MIC,Staphylococcus aureus [12],15.6 µg/mL
same,fractional inhibitory concentration index (FICI),Staphylococcus aureus [13],0.315
same,fractional inhibitory concentration index (FICI),Staphylococcus aureus [14],0.324
same,fractional inhibitory concentration index (FICI),Staphylococcus aureus [15],0.324
CC(C)/C=C/CCCCC(=O)NCc1ccc(O)c(OCc2nnc(Nc3cccc(Br)c3)o2)c1,MIC,[16],0.5 µg/mL
same,MIC,[17],0.12 µg/mL
same,MEC,[18],12.5 µg/mL
O=c1cc(-c2ccccc2)oc2cc(O)c(O)c(O)c12 [BAICALEIN],MIC,Staphylococcus aureus [19],128 µg/mL
same,MIC,Staphylococcus aureus [20],64 µg/mL
same,MIC,Staphylococcus aureus [21],128 µg/mL
same,MIC,Staphylococcus aureus [22],64 µg/mL
same,MIC,Staphylococcus aureus [23],128 µg/mL
same,MIC,Staphylococcus aureus [24],128 µg/mL
C=C1CC/C=C(\C)CC[C@@H]2[C@@H]1CC2(C)C [BETA-CARYOPHYLLENE],MIC,Escherichia coli,≥ 1020 µg/mL
same,MIC,Pseudomonas aeruginosa,≥ 1020 µg/mL
same,MIC,Staphylococcus aureus [25],32 µg/mL
